Experimental data published in the NIST ThermoML archive (doi:10.1016/j.jct.2006.08.009).
Numbers after ± are expanded uncertainties.

Test: mn = molality of the nth substance listed, in mol/kg
Conditions: 350 kPa, Liquid; for apparent molar heat capacity: Extra sensitive DSC

SMILES: OCC(O)CO [glycerol] + O
- mass density (318.15 K, m1 = 0.5002): 1000.34 ± 0.17 kg/m3
- mass density (318.15 K, m1 = 1.001): 1009.55 ± 0.18 kg/m3
- mass density (318.15 K, m1 = 2): 1026.3 ± 0.22 kg/m3
- mass density (318.15 K, m1 = 3.003): 1041.09 ± 0.25 kg/m3
- mass density (318.15 K, m1 = 4.999): 1065.4 ± 0.3 kg/m3
- apparent molar heat capacity (323.15 K, m1 = 0.02): 260 ± 48 J/K/mol
- apparent molar heat capacity (323.15 K, m1 = 0.05): 258.8 ± 20 J/K/mol
- apparent molar heat capacity (323.15 K, m1 = 0.1): 259.4 ± 10 J/K/mol
- apparent molar heat capacity (323.15 K, m1 = 0.2501): 258.6 ± 4.7 J/K/mol
- apparent molar heat capacity (323.15 K, m1 = 0.5002): 258 ± 3 J/K/mol
- apparent molar heat capacity (323.15 K, m1 = 1.001): 256.23 ± 2.2 J/K/mol
- apparent molar heat capacity (323.15 K, m1 = 2): 253.61 ± 1.9 J/K/mol
- apparent molar heat capacity (323.15 K, m1 = 3.003): 248.72 ± 1.7 J/K/mol
- apparent molar heat capacity (323.15 K, m1 = 4.999): 247.42 ± 1.5 J/K/mol
- apparent molar heat capacity (328.15 K, m1 = 0.02): 263 ± 46 J/K/mol
- apparent molar heat capacity (328.15 K, m1 = 0.05): 261.7 ± 18 J/K/mol
- apparent molar heat capacity (328.15 K, m1 = 0.1): 262.3 ± 9.6 J/K/mol
- apparent molar heat capacity (328.15 K, m1 = 0.2501): 261.5 ± 4.4 J/K/mol
- apparent molar heat capacity (328.15 K, m1 = 0.5002): 261 ± 2.8 J/K/mol
- apparent molar heat capacity (328.15 K, m1 = 1.001): 259.22 ± 2.2 J/K/mol
- apparent molar heat capacity (328.15 K, m1 = 2): 256.62 ± 1.8 J/K/mol
- apparent molar heat capacity (328.15 K, m1 = 3.003): 251.8 ± 1.7 J/K/mol
- apparent molar heat capacity (328.15 K, m1 = 4.999): 250.48 ± 1.5 J/K/mol
- mass density (328.15 K, m1 = 0.02): 986.19 ± 0.19 kg/m3
- mass density (328.15 K, m1 = 0.05): 986.78 ± 0.19 kg/m3
- mass density (328.15 K, m1 = 0.1): 987.77 ± 0.19 kg/m3
- mass density (328.15 K, m1 = 0.2501): 990.83 ± 0.18 kg/m3
- mass density (328.15 K, m1 = 0.5002): 995.67 ± 0.17 kg/m3
- mass density (328.15 K, m1 = 1.001): 1004.79 ± 0.18 kg/m3
- mass density (328.15 K, m1 = 2): 1021.31 ± 0.21 kg/m3
- mass density (328.15 K, m1 = 3.003): 1035.9 ± 0.24 kg/m3
- mass density (328.15 K, m1 = 4.999): 1059.9 ± 0.29 kg/m3
- apparent molar heat capacity (333.15 K, m1 = 0.02): 266 ± 42 J/K/mol
- apparent molar heat capacity (333.15 K, m1 = 0.05): 264.5 ± 17 J/K/mol
- apparent molar heat capacity (333.15 K, m1 = 0.1): 265 ± 9 J/K/mol
- apparent molar heat capacity (333.15 K, m1 = 0.2501): 264.3 ± 4.3 J/K/mol
- apparent molar heat capacity (333.15 K, m1 = 0.5002): 263.72 ± 2.8 J/K/mol
- apparent molar heat capacity (333.15 K, m1 = 1.001): 262 ± 2.1 J/K/mol
- apparent molar heat capacity (333.15 K, m1 = 2): 259.44 ± 1.8 J/K/mol
- apparent molar heat capacity (333.15 K, m1 = 3.003): 254.69 ± 1.7 J/K/mol
- apparent molar heat capacity (333.15 K, m1 = 4.999): 253.36 ± 1.5 J/K/mol
- apparent molar heat capacity (338.15 K, m1 = 0.02): 268.5 ± 40 J/K/mol
- apparent molar heat capacity (338.15 K, m1 = 0.05): 267 ± 16 J/K/mol
- apparent molar heat capacity (338.15 K, m1 = 0.1): 267.6 ± 8.6 J/K/mol
- apparent molar heat capacity (338.15 K, m1 = 0.2501): 266.8 ± 4.1 J/K/mol
- apparent molar heat capacity (338.15 K, m1 = 0.5002): 266.28 ± 2.7 J/K/mol
- apparent molar heat capacity (338.15 K, m1 = 1.001): 264.6 ± 2.1 J/K/mol
- apparent molar heat capacity (338.15 K, m1 = 2): 262.07 ± 1.8 J/K/mol
- apparent molar heat capacity (338.15 K, m1 = 3.003): 257.43 ± 1.6 J/K/mol
- apparent molar heat capacity (338.15 K, m1 = 4.999): 256.04 ± 1.4 J/K/mol
- mass density (338.15 K, m1 = 0.02): 981.05 ± 0.21 kg/m3
- mass density (338.15 K, m1 = 0.05): 981.63 ± 0.2 kg/m3
- mass density (338.15 K, m1 = 0.1): 982.65 ± 0.2 kg/m3
- mass density (338.15 K, m1 = 0.2501): 985.63 ± 0.2 kg/m3
- mass density (338.15 K, m1 = 0.5002): 990.4 ± 0.19 kg/m3
- mass density (338.15 K, m1 = 1.001): 999.46 ± 0.17 kg/m3
- mass density (338.15 K, m1 = 2): 1015.84 ± 0.2 kg/m3
- mass density (338.15 K, m1 = 3.003): 1030.29 ± 0.23 kg/m3
- mass density (338.15 K, m1 = 4.999): 1054 ± 0.28 kg/m3
- apparent molar heat capacity (343.15 K, m1 = 0.02): 270.6 ± 39 J/K/mol
- apparent molar heat capacity (343.15 K, m1 = 0.05): 269.2 ± 16 J/K/mol
- apparent molar heat capacity (343.15 K, m1 = 0.1): 269.8 ± 8.4 J/K/mol
- apparent molar heat capacity (343.15 K, m1 = 0.2501): 269.15 ± 3.9 J/K/mol
- apparent molar heat capacity (343.15 K, m1 = 0.5002): 268.63 ± 2.6 J/K/mol
- apparent molar heat capacity (343.15 K, m1 = 1.001): 266.97 ± 2 J/K/mol
- apparent molar heat capacity (343.15 K, m1 = 2): 264.48 ± 1.7 J/K/mol
- apparent molar heat capacity (343.15 K, m1 = 3.003): 259.94 ± 1.6 J/K/mol
- apparent molar heat capacity (343.15 K, m1 = 4.999): 258.51 ± 1.4 J/K/mol
- apparent molar heat capacity (348.15 K, m1 = 0.02): 272.9 ± 39 J/K/mol
- apparent molar heat capacity (348.15 K, m1 = 0.05): 271.3 ± 16 J/K/mol
- apparent molar heat capacity (348.15 K, m1 = 0.1): 271.9 ± 8.4 J/K/mol
- apparent molar heat capacity (348.15 K, m1 = 0.2501): 271.31 ± 3.9 J/K/mol
- apparent molar heat capacity (348.15 K, m1 = 0.5002): 270.82 ± 2.6 J/K/mol
- apparent molar heat capacity (348.15 K, m1 = 1.001): 269.16 ± 2 J/K/mol
- apparent molar heat capacity (348.15 K, m1 = 2): 266.71 ± 1.7 J/K/mol
- apparent molar heat capacity (348.15 K, m1 = 3.003): 262.29 ± 1.6 J/K/mol
- apparent molar heat capacity (348.15 K, m1 = 4.999): 260.82 ± 1.4 J/K/mol
- mass density (348.15 K, m1 = 0.02): 975.36 ± 0.22 kg/m3
- mass density (348.15 K, m1 = 0.05): 975.93 ± 0.22 kg/m3
- mass density (348.15 K, m1 = 0.1): 976.93 ± 0.21 kg/m3
- mass density (348.15 K, m1 = 0.2501): 979.9 ± 0.21 kg/m3
- mass density (348.15 K, m1 = 0.5002): 984.63 ± 0.2 kg/m3
- mass density (348.15 K, m1 = 1.001): 993.59 ± 0.18 kg/m3
- mass density (348.15 K, m1 = 2): 1009.84 ± 0.19 kg/m3
- mass density (348.15 K, m1 = 3.003): 1024.18 ± 0.22 kg/m3
- mass density (348.15 K, m1 = 4.999): 1047.69 ± 0.26 kg/m3
- apparent molar heat capacity (353.15 K, m1 = 0.02): 274.8 ± 39 J/K/mol
- apparent molar heat capacity (353.15 K, m1 = 0.05): 273.1 ± 16 J/K/mol
- apparent molar heat capacity (353.15 K, m1 = 0.1): 273.9 ± 8.4 J/K/mol
- apparent molar heat capacity (353.15 K, m1 = 0.2501): 273.26 ± 3.8 J/K/mol
- apparent molar heat capacity (353.15 K, m1 = 0.5002): 272.82 ± 2.5 J/K/mol
- apparent molar heat capacity (353.15 K, m1 = 1.001): 271.17 ± 2 J/K/mol
- apparent molar heat capacity (353.15 K, m1 = 2): 268.75 ± 1.7 J/K/mol
- apparent molar heat capacity (353.15 K, m1 = 3.003): 264.53 ± 1.6 J/K/mol
- apparent molar heat capacity (353.15 K, m1 = 4.999): 262.96 ± 1.4 J/K/mol
- apparent molar heat capacity (358.15 K, m1 = 0.02): 276.3 ± 39 J/K/mol
- apparent molar heat capacity (358.15 K, m1 = 0.05): 274.7 ± 16 J/K/mol
- apparent molar heat capacity (358.15 K, m1 = 0.1): 275.6 ± 8.4 J/K/mol
- apparent molar heat capacity (358.15 K, m1 = 0.2501): 274.92 ± 3.8 J/K/mol
- apparent molar heat capacity (358.15 K, m1 = 0.5002): 274.47 ± 2.5 J/K/mol
- apparent molar heat capacity (358.15 K, m1 = 1.001): 272.82 ± 2 J/K/mol
- apparent molar heat capacity (358.15 K, m1 = 2): 270.44 ± 1.7 J/K/mol
- apparent molar heat capacity (358.15 K, m1 = 3.003): 266.6 ± 1.6 J/K/mol
- apparent molar heat capacity (358.15 K, m1 = 4.999): 264.75 ± 1.4 J/K/mol
- mass density (358.15 K, m1 = 0.02): 969.12 ± 0.23 kg/m3
- mass density (358.15 K, m1 = 0.05): 969.7 ± 0.23 kg/m3
- mass density (358.15 K, m1 = 0.1): 970.69 ± 0.23 kg/m3
- mass density (358.15 K, m1 = 0.2501): 973.64 ± 0.22 kg/m3
- mass density (358.15 K, m1 = 0.5002): 978.33 ± 0.21 kg/m3
- mass density (358.15 K, m1 = 1.001): 987.24 ± 0.19 kg/m3
- mass density (358.15 K, m1 = 2): 1003.38 ± 0.18 kg/m3
- mass density (358.15 K, m1 = 3.003): 1017.63 ± 0.2 kg/m3
- mass density (358.15 K, m1 = 4.999): 1041.02 ± 0.25 kg/m3
- apparent molar heat capacity (363.15 K, m1 = 0.02): 277.1 ± 39 J/K/mol
- apparent molar heat capacity (363.15 K, m1 = 0.05): 275.5 ± 16 J/K/mol
- apparent molar heat capacity (363.15 K, m1 = 0.1): 276.5 ± 8.4 J/K/mol
- apparent molar heat capacity (363.15 K, m1 = 0.2501): 275.65 ± 3.9 J/K/mol
- apparent molar heat capacity (363.15 K, m1 = 0.5002): 275.17 ± 2.6 J/K/mol
- apparent molar heat capacity (363.15 K, m1 = 1.001): 273.45 ± 2 J/K/mol
- apparent molar heat capacity (363.15 K, m1 = 2): 271.04 ± 1.8 J/K/mol
- apparent molar heat capacity (363.15 K, m1 = 3.003): 268.61 ± 1.6 J/K/mol
- apparent molar heat capacity (363.15 K, m1 = 4.999): 265.49 ± 1.5 J/K/mol
- mass density (368.15 K, m1 = 0.02): 962.42 ± 0.25 kg/m3
- mass density (368.15 K, m1 = 0.05): 963 ± 0.24 kg/m3
- mass density (368.15 K, m1 = 0.1): 963.94 ± 0.24 kg/m3
- mass density (368.15 K, m1 = 0.2501): 966.88 ± 0.24 kg/m3
- mass density (368.15 K, m1 = 0.5002): 971.55 ± 0.23 kg/m3
- mass density (368.15 K, m1 = 1.001): 980.42 ± 0.21 kg/m3
- mass density (368.15 K, m1 = 2): 996.47 ± 0.18 kg/m3
- mass density (368.15 K, m1 = 3.003): 1010.68 ± 0.19 kg/m3
- mass density (368.15 K, m1 = 4.999): 1033.93 ± 0.24 kg/m3
